From US8551963B2, “Imidazolothiazole compounds and methods of use thereof” (Ambit Biosciences Corporation, priority 2008, dated 2013)
In brackets after ≈: the same amount, converted by molar mass. Structures can show the parent of a compound that is named as a salt. Where two headings read alike, the source gives them in different places.

How the values were obtained:
[1] = Microsomal stability, pooled mouse liver microsomes; type: in vitro ADME; conditions: pH 7.4
Experimental: Microsomes were stored at −80° C. prior to use.
The final incubation volume was 600 μL.
The elimination rate constant (k)=(−slope)

In vivo clearance, mouse = conditions: clearance call in words
Source text: (§1) Clearance was modest in dog microsomes, and high in Cynomolgus monkey microsomes. Using a comparison of in vitro and in vivo clearance, human clearance can be predicted. The in vitro intrinsic clearance is influenced by animal weight, hepatic blood flow, relative liver weight, and amount of protein/liver weight. […] Human clearance is predicted to be low (Table 2).

In vivo clearance, rat = assay: In vivo clearance, rat
Source text: as §1

In vivo clearance, dog = assay: In vivo clearance, dog
Source text: as §1

[2] = In vivo clearance, monkey
Source text: as §1

[3] = Predicted human in vivo clearance; conditions: predicted from comparison of in vitro and in vivo clearance
Source text: as §1

MV4;11 cells = assay: MV4;11 cellular proliferation assay (Cell Titer Blue); type: cell-based; conditions: Homo sapiens, MV4-11, 72 h, read-out: EC50 (50% inhibition of cellular proliferation)
RS4;11 cells = assay: RS4;11 cellular proliferation assay (Cell Titer Blue); type: cell-based; conditions: Homo sapiens, RS4-11, 48 h, read-out: EC50 (50% inhibition of cellular proliferation)
[4] = dog, microsomes, 1 μM, pH 7.4
in vitro [5] = conditions: rat, microsomes, pH 7.4
in vitro [6] = conditions: dog, microsomes
in vitro [7] = conditions: monkey, microsomes, pH 7.4
in vitro [8] = conditions: both, human, microsomes, pH 7.4
plasma protein = assay: Plasma protein binding assay (equilibrium dialysis); type: in vitro ADME; conditions: 1 μM, equilibrium dialysis 16-20 hours at 37° C.
Experimental: Reagents: 1× Isotonic PBS (Mediatech, Inc., Herndon, Va.); 96 Well Equilibrium Dialyzer (Harvard Apparatus, Holliston, Mass.) and Animal plasma from species of interest.
1 μM solutions of test compound were prepared in both isotonic PBS and 10% animal plasma in isotonic PBS.
200 μl of each test solution was added to opposite sides of the equilibrium dialysis membrane.
Samples were incubated for 16-20 hours at 37° C.
After incubation, 100 μl sample was removed from the PBS side and diluted with 100 μl of 20% animal plasma in PBS.
100 μl sample was removed from the 10% animal plasma side and diluted with 100 μl of 10% animal plasma.
A calibration curve was prepared in 10% animal plasma to extrapolate unknown concentrations.
Samples were analyzed by LC/MS/MS.
50 μl of samples, calibration standards and quality control standards were extracted with 100 μl of acetonitrile containing 25 ng/ml of internal standard.
Calculations Calculate fraction unbound in 10% plasma Fu(10%)=1−(PC−PF)/PC) Convert 10% plasma value to 100% Fu(100%)=Fu10%/(10−9*Fu10%).

P-Glycoprotein = P-Glycoprotein (Homo sapiens (Human), UniProt P08183); assay: Digoxin bidirectional MDR1-MDCK permeability, Compound I-1 as an inhibitor; conditions: dog; for Papp A→B at 1 μM: MDCK-MDR1, pH 7.4, Digoxin PeAP→BL; for Papp B→A at 1 μM: MDCK-MDR1, pH 7.4, Digoxin PeBL→AP
[9] = Aqueous and surfactant solubility; type: physicochemical; conditions: room temperature overnight
P-glycoprotein (MDR1) = assay: in vitro; conditions: dog
MDR1-MDCK cells = conditions: dog, MDCK-MDR1, 10 μM, pH 7.4
[10] = Microsomal stability and metabolic turnover, pooled rat liver microsomes; conditions: pH 7.4
[11] = Microsomal stability and metabolic turnover, pooled dog liver microsomes; conditions: pH 7.4
[12] = Microsomal stability and metabolic turnover, pooled human liver microsomes; conditions: both, pH 7.4
[13] = Microsomal stability and metabolic turnover, pooled Cynomolgus monkey liver microsomes; conditions: pH 7.4
[14] = in vivo, read-out: In Vivo t1/2 (converted)
[15] = Table 17, Digoxin 1 μM alone, Std
[16] = Table 17, Digoxin 1 μM alone, Surf.
[17] = preliminary experiment, Digoxin 1 μM alone, Std
[18] = preliminary experiment, Digoxin 1 μM alone, Surf.

P-Glycoprotein, sequence (P08183 whole entry): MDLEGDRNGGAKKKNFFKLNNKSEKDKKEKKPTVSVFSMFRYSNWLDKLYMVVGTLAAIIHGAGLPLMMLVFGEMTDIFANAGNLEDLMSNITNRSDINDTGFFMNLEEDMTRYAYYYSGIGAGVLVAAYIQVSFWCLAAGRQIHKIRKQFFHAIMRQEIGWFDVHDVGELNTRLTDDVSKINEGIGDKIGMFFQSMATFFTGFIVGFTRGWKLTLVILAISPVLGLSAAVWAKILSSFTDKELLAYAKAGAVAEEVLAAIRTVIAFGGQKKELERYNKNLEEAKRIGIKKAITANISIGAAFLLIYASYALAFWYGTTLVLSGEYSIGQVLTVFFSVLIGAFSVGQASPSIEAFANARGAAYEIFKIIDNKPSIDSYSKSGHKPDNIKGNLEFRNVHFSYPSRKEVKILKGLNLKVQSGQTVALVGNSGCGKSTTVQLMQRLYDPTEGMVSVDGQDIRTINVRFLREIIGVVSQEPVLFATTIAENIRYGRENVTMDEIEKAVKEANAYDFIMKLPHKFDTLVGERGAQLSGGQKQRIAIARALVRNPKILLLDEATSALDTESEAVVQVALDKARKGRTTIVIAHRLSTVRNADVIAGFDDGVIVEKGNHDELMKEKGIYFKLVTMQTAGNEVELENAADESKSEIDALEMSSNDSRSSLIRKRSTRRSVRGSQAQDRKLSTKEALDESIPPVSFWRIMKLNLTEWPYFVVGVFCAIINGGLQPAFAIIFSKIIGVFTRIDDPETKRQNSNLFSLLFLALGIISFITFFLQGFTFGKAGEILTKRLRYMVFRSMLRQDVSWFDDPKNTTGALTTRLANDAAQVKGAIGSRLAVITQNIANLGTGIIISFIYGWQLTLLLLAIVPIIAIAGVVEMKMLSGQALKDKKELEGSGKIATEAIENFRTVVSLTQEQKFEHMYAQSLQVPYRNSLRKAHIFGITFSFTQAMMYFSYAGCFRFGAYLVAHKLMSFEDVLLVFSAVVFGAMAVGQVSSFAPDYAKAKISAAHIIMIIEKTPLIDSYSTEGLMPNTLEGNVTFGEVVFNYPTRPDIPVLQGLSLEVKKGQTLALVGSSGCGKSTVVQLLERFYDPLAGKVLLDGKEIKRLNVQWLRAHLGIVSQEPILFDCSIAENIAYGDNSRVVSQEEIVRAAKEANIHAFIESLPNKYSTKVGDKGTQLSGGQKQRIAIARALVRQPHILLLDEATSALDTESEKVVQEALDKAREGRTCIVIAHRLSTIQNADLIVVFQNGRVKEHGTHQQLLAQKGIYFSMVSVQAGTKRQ

Structure (SMILES): CC(C)(C)c1cc(NC(=O)Nc2ccc(-c3cn4c(n3)sc3cc(OCCN5CCOCC5)ccc34)cc2)no1 [Compound IA, N-(5-tert-butyl-isoxazol-3-yl)-N′-{4-[7-(2-morpholin-4-yl-ethoxy)imidazo[2,1-b][1,3]benzothiazol-2-yl]phenyl}urea]
- half-life at 1 μM ([1]; mouse, microsomes): > 60 min
- microsomal CLint at 1 μM ([1]; mouse, microsomes): < 23 µL/min/mg
- In Vivo Cl (In vivo clearance, mouse): Low
- In Vivo Cl (In vivo clearance, rat; clearance call in words): Low
- half-life (In vivo clearance, rat; [14]): 414 min
- In Vivo Cl (In vivo clearance, dog; clearance call in words): Modest
- half-life (In vivo clearance, dog; [14]): 366 min
- In Vivo Cl ([2]; clearance call in words): High
- half-life [2, 14]: 162 min
- In Vivo Cl [3]: low and Low
- EC50 (MV4;11 cells): 0.6 nM
- EC50 (RS4;11 cells): 4 nM
- half-life [4]: 24 min
- half-life at 1 μM (in vitro [5]): > 60 min
- microsomal CLint at 1 μM (in vitro [5]): < 23 µL/min/mg
- microsomal CLint at 1 μM (in vitro [6]; pH 7.4): 42 µL/min/mg
- half-life at 1 μM (in vitro [6]; pH 7.4, Half-life): 33 min
- half-life at 1 μM (in vitro [7]): 19 min
- microsomal CLint at 1 μM (in vitro [7]): 73 µL/min/mg
- half-life at 1 μM (in vitro [8]): > 60 min
- microsomal CLint at 1 μM (in vitro [8]): < 23 µL/min/mg

Structure (SMILES): CC(C)(C)c1cc(NC(=O)Nc2ccc(-c3cn4c(n3)sc3cc(OCCN5CCOCC5)ccc34)cc2)no1 [Compound IA, hydrochloride salt, N-(5-tert-butyl-isoxazol-3-yl)-N′-{4-[7-(2-morpholin-4-yl-ethoxy)imidazo[2,1-b][1,3]benzothiazol-2-yl]phenyl}urea, reference compound]
- Percentage of unbound compound in 10% plasma (plasma protein): 17%

Structure (SMILES): C[C@H]1O[C@@H](O[C@H]2[C@@H](O)C[C@H](O[C@H]3[C@@H](O)C[C@H](O[C@H]4CC[C@@]5(C)[C@H](CC[C@@H]6[C@@H]5C[C@@H](O)[C@]5(C)[C@@H](C7=CC(=O)OC7)CC[C@]65O)C4)O[C@@H]3C)O[C@@H]2C)C[C@H](O)[C@@H]1O [Digoxin, reference compound]
- Papp A→B at 1 μM (P-Glycoprotein; [15]): 8.76 ×10⁻⁶ cm/s
- Papp A→B at 1 μM (P-Glycoprotein; [16]): 2.21 ×10⁻⁶ cm/s
- Papp A→B at 1 μM (P-Glycoprotein; [17]): 0.24 ×10⁻⁶ cm/s
- Papp A→B at 1 μM (P-Glycoprotein; [18]): 2.91 ×10⁻⁶ cm/s
- Papp B→A at 1 μM (P-Glycoprotein; [15]): 29.3 ×10⁻⁶ cm/s
- Papp B→A at 1 μM (P-Glycoprotein; [16]): 4.93 ×10⁻⁶ cm/s
- Papp B→A at 1 μM (P-Glycoprotein; [17]): 20 ×10⁻⁶ cm/s
- Papp B→A at 1 μM (P-Glycoprotein; [18]): 6.03 ×10⁻⁶ cm/s

Structure (SMILES): CC(=O)N1CCN(c2ccc(OCC3COC(Cn4ccnc4)(c4ccc(Cl)cc4Cl)O3)cc2)CC1 (stereo not drawn) [Ketoconazole]
- solubility ([9]; HBSS containing 0.05% Polysorbate 80, 2.5% DMSO, read-out: Average Aqueous Solubility, 0.05% Polysorbate 80): 86 µM (≈ 45.7 µg/mL)
- solubility ([9]; HBSS pH 7.4, 2.5% DMSO, read-out: Average Aqueous Solubility, pH 7.4): 18 µM (≈ 9.57 µg/mL)

Structure (SMILES): CC(C)NCC(O)COc1cccc2[nH]ccc12 (stereo not drawn) [Pindolol]
- efflux ratio at 10 μM (P-glycoprotein (MDR1); MDCK-MDR1, pH 7.4, Assymetry Index): 1
- Papp A→B at 10 μM (P-glycoprotein (MDR1); MDCK-MDR1, pH 7.4, PeAP→BL): 31.7 ×10⁻⁶ cm/s
- Papp B→A at 10 μM (P-glycoprotein (MDR1); MDCK-MDR1, pH 7.4, PeBL→AP): 30.6 ×10⁻⁶ cm/s

Structure (SMILES): CNC(=C[N+](=O)[O-])NCCSCc1ccc(CN(C)C)o1 [Ranitidine]
- Assymetry Index (MDR1-MDCK cells): 1.9
- PeAP→BL (MDR1-MDCK cells): 1.63 ×10⁻⁶ cm/s
- PeBL→AP (MDR1-MDCK cells): 3.02 ×10⁻⁶ cm/s

Structure (SMILES): COC(=O)[C@H]1[C@H]2C[C@@H]3c4[nH]c5cc(OC)ccc5c4CCN3C[C@H]2C[C@@H](OC(=O)c2cc(OC)c(OC)c(OC)c2)[C@@H]1OC [Reserpine]
- solubility ([9]; HBSS buffer with 0.05% Polysorbate 80, pH 7.4, aqueous with cosolvent or surfactant or cyclodextrin, kinetic from dmso stock, HBSS containing 0.05% Polysorbate 80, 2.5% DMSO, read-out: Average Aqueous Solubility, 0.05% Polysorbate 80): 5 µM (≈ 3.04 µg/mL)
- solubility ([9]; Hank's balanced salt solution (HBSS) buffer, aqueous buffer, kinetic from dmso stock, HBSS pH 7.4, 2.5% DMSO, read-out: Average Aqueous Solubility, pH 7.4): < 1 µM

Structure (SMILES): C[C@]12CC[C@H]3[C@@H](CCC4=CC(=O)CC[C@@]43C)[C@@H]1CC[C@@H]2O [Testosterone]
- half-life at 1 μM ([1]; mouse liver microsomes, 1 μM, 0.5 mg/mL, NADPH, read-out: Half-life): 6 min
- half-life at 1 μM [10]: 4 min
- half-life at 1 μM [11]: 60 min
- half-life at 1 μM [12]: 11 min
- half-life at 1 μM [13]: 3 min
